What was measured:
[1] = tested on: PBQ-induced writhing in mice; experiment: PBQ-Writhing assay; format: in vivo; details: male mice, subcutaneous, ED50 from number of animals protected compared to saline controls
Procedure: PBQ-Writhing assay. Groups of 10 male mice weighing 20 to 35 grams are used for each dose and for the vehicle control. Writhing is induced 30 or 60 minutes following drug or drug vehicle administration by the intraperitoneal injection of a 0.025 percent solution of PBQ and 5 percent ethanol. The number of separate writhing motions occurring in a ten minute period starting 5 minutes following the PBQ challenge is counted for each mouse. A positive antinociceptive affect is assured when an individual animals' writhing frequency is less than or equal to 50 percent of the vehicle control group median frequency. ED50 values based on the number of positive responders per dose group is determined using the method of Litchfield and Wilcoxon. M. R. Fennessy et al. The Assessment of and Problems Involved in the Experimental Evaluation of Narcotic Analgesics. In Methods in Narcotics Research, Marcel Dekker, Inc., New York, 1975. H. Bomberg et al. Use of Writhing Test for Evaluating Analgesic Activity of Narcotic Analgesics, Proc. Soc. Ext. Biol. Med. 118: 763-766, 1965.
The compounds of the invention were evaluated with respect to analgesic activity utilizing the test procedures described previously. Set forth in Table I below are the test results in the writhing assay for certain preferred compounds of the invention within formula I. The data summarized represents the ED50 calculated on the basis of the number of animals protected at a dose of 10 mg/Kg of the active test compound compared to saline controls.

[2] = tested on: brain opiate receptor sites; details: partially purified brain opiate receptor sites; cited from earlier work
opiate activity = details: cited from earlier work
rat = details: injected directly into the brain of the rat; cited from earlier work

| Molecule | Activity (ED50 mg/Kg - Administered Subcutaneously) [1] [mg/kg] | binding to opiate receptor sites [2] | activity in bioassays for opiate activity (opiate activity) | analgesic activity (rat) |
| --- | --- | --- | --- | --- |
| 2,6-dimethyltyrosyl-D-norleucylglycyl-3-cyclohexyl-N-(6-methoxy-6-oxohexyl)-L-alaninamide, monohydrochloride(diastereomer-D) [Example 104] | 0.20 |  |  |  |
| COC(=O)CCCCCNC(=O)[C@H](CC1CCCCC1)N(C)C(=O)CNC(=O)[C@@H](CCSC)NC(=O)[C@@H](N)Cc1c(C)cc(O)cc1C.Cl [Example 43, 2,6-dimethyl-L-tyrosyl-D-methionylglycyl-N-(6-methoxy-6-oxohexyl)-3-cyclohexyl-N^α -methyl-L-alaninamide monohydrochloride] | 0.20 |  |  |  |
| CSCC[C@@H](NC(=O)[C@@H](N)Cc1c(C)cc(O)cc1C)C(=O)NCC(=O)N[C@@H](CC1CCCCC1)C(=O)NCCCCCC(=O)O.Cl [Example 127, 2,6-dimethyl-L-tyrosyl-D-methionylglycyl-N-(5-carboxypentyl)-3-cyclohexyl-L-alaninamide, monohydrochloride] | 0.09 |  |  |  |
| methionine enkephalin |  | binds stereospecifically | highly active | weak, fleeting analgesic activity |
